As a reminder, the IC50 is the point on the concentration scale where inhibition reaches its midpoint.

The target in the test is T1, human chemokine receptor 2 isoform B (Homo sapiens, UniProt P41597).
T1 construct: host or cells: CHOK1-CCR2B-A5 cells (CHO-K1)
T1 sequence (P41597 1-360 isoform P41597-2): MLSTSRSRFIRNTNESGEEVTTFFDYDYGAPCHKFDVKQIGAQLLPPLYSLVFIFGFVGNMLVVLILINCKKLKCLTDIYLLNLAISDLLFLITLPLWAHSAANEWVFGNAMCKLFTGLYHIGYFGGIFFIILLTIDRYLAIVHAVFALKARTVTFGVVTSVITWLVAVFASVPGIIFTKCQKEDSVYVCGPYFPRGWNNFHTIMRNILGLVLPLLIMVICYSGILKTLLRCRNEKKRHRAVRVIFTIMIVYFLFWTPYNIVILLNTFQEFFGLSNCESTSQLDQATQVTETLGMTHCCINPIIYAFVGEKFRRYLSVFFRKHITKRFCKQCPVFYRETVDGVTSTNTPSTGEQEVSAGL
The experiment in a line: Calcium mobilization assay (FLIPR, antagonist activity against MCP-1). Particulars: Ca mobilisation assay, CHOK1-CCR2B-A5 cells, inhibition of calcium increase induced by 20 nM MCP-1. The test is classed as cell-based. Put shortly:
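CHOK1 cells stably overexpressing human CCR2B, loaded with 4 μM Fluo-4 for 2 h at 30° C, compounds added and agonist signal read by FLIPR for 80 s. After 20-30 min at 30° C, 20 nM MCP-1 was added and fluorescence read again. IC50 is 50% inhibition of specific calcium increase (max minus basal).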
A general note: Calcium assays in cells follow changes in intracellular calcium, usually with a dye or a luminescent sensor.

Regarding `C[C@H]1C(=O)N(CCCC(=O)N2CCS(=O)(=O)CC2)CCN1C(=O)Nc1cccc(Cl)c1` [Example 110, (S)-4-[4-(1,1-Dioxo-1 lambda*6*-thiomorpholin-4-yl)-4-oxo-butyl]-2-methyl-3-oxo-piperazine-1-carboxylic acid (3-chloro-phenyl)-amide], the IC50 came out at 1.34 µM.
Consider `C[C@H]1C(=O)N(CCCC(=O)N2CCC3(CC3)[C@H](O)C2)CCN1c1ccc(Cl)c(OC(F)(F)F)c1` [Example 62, (S)-4-(4-chloro-3-trifluoromethoxy-phenyl)-1-[4-((S)-4-hydroxy-6-aza-spiro[2.5]oct-6-yl)-4-oxo-butyl]-3-methyl-piperazin-2-one], for which the half-inhibitory concentration (IC50) worked out at 0.0417 µM.
`C[C@H]1CCN(C(=O)CCN2CCN(C(=O)Nc3ccc(Cl)c(Cl)c3)[C@@H](C)C2=O)C[C@H]1O` [Example 20, (S)-4-[3-((3S,4S)-3-Hydroxy-4-methyl-piperidin-1-yl)-3-oxo-propyl]-2-methyl-3-oxo-piperazine-1-carboxylic acid (3,4-dichloro-phenyl)-amide]: the 50% inhibitory concentration (IC50) stood at 1.08 µM.
As to `COC(=O)[C@H](CCC(=O)N1CCC2(CC2)[C@H](O)C1)N1CCN(C(=O)Nc2ccc(C(F)(F)F)c(Cl)c2)[C@@H](C)C1=O` [Example 52, (S)-2-[(S)-4-(3-Chloro-4-trifluoromethyl-phenylcarbamoyl)-3-methyl-2-oxo-piperazin-1-yl]-5-((S)-4-hydroxy-6-aza-spiro[2.5]oct-6-yl)-5-oxo-pentanoic acid methyl ester], the IC50 turned out to be 0.738 µM.
As for `O=C1NCC2(CCN(C(=O)CCN3CCN(C(=O)/C=C/c4ccc(Cl)c(Cl)c4)CCC3=O)CC2)O1` [Example 90, 8-(3-{4-[(E)-3-(3,4-Dichloro-phenyl)-acryloyl]-7-oxo-[1,4]diazepan-1-yl}-propionyl)-1-oxa-3,8-diaza-spiro[4.5]decan-2-one], the figure is 0.184 µM; as for `C[C@@H]1CN(CCC(=O)N2CCC(C)(O)CC2)C(=O)CCN1C(=O)/C=C/c1cccc(Cl)c1` [Example 102, (R)-1-[(E)-3-(3-Chloro-phenyl)-acryloyl]-4-[3-(4-hydroxy-4-methyl-piperidin-1-yl)-3-oxo-propyl]-2-methyl-[1,4]diazepan-5-one], 0.152 µM.
As to `O=C(/C=C/c1ccc(Cl)c(Cl)c1)N1CCC(=O)N(CCC(=O)N2CCC(O)(c3ccncc3)CC2)CC1` [Example 78, 1-[(E)-3-(3,4-Dichloro-phenyl)-acryloyl]-4-[3-(4-hydroxy-3,4,5,6-tetrahydro-2H-[4,4′]bipyridinyl-1-yl)-3-oxo-propyl)-[1,4]diazepan-5-one], the IC50 was determined as 0.0512 µM.
The figure for `C[C@@H]1CN(CCCC(=O)N2CCC3(CC3)[C@H](O)C2)C(=O)C=CN1c1ccc(Cl)c(C(F)(F)F)c1` [Example 125, (R)-1-(4-Chloro-3-trifluoromethyl-phenyl)-4-[4-((S)-4-hydroxy-6-aza-spiro[2.5]oct-6-yl)-4-oxo-butyl]-2-methyl-1,2,3,4-tetrahydro-[1,4]diazepin-5-one] is 2.75 µM; for `COC(=O)C(CC(=O)N(C)C)N1CCN(C(=O)/C=C/c2cccc(Cl)c2)CCC1=O` (racemic) [Example 12, rac-(2-{4-[(E)-3-(3-Chloro-phenyl)-acryloyl]-7-oxo-[1,4]diazepan-1-yl}-N,N-dimethyl-succinamic acid methyl ester)] it is 1.94 µM.
Take `CN1CCN(C(=O)CCN2CCN(C(=O)/C=C/c3ccc(Cl)c(Cl)c3)CCC2=O)CC1=O` [Example 80, 1-[(E)-3-(3,4-Dichloro-phenyl)-acryloyl]-4-[3-(4-methyl-3-oxo-piperazin-1-yl)-3-oxo-propyl]-[1,4]diazepan-5-one]: the IC50 was found to be 3.25 µM.
For the compound `CC1(CO)CCN(C(=O)CN2CCN(C(=O)/C=C/c3ccc(Cl)c(Cl)c3)CCC2=O)CC1` [Example 99, 1-[(E)-3-(3,4-Dichloro-phenyl)-acryloyl]-4-[2-(4-hydroxymethyl-4-methyl-piperidin-1-yl)-2-oxo-ethyl]-[1,4]diazepan-5-one], the concentration for half-maximal inhibition (IC50) turned out to be 4.96 µM.
The figure for `C[C@H]1C(=O)N(CC(O)CC(=O)N2CCC3(CC3)[C@H](O)C2)CCN1C(=O)Nc1ccc(OC(F)(F)F)c(Cl)c1` (stereo partly drawn) [Example 44, (S)-4-[(R,S)-2-Hydroxy-4-((S)-4-hydroxy-6-aza-spiro[2.5]oct-6-yl)-4-oxo-butyl]-2-methyl-3-oxo-piperazine-1-carboxylic acid (3-chloro-4-trifluoromethoxy-phenyl)-amide] is 0.0027 µM; for `COC[C@H](CCC(=O)N1CCC2(CC2)[C@H](O)C1)N1CCN(C(=O)Nc2ccc(C(F)(F)F)c(Cl)c2)[C@@H](C)C1=O` [Example 139, (S)-4-[(S)-4-((S)-4-Hydroxy-6-aza-spiro[2.5]oct-6-yl)-1-methoxymethyl-4-oxo-butyl]-2-methyl-3-oxo-piperazine-1-carboxylic acid (3-chloro-4-trifluoromethyl-phenyl)-amide] it is 0.152 µM.
On to `C[C@H]1C(=O)N([C@H](CO)CCC(=O)N2CCC3(CC3)[C@H](O)C2)CCN1C(=O)Nc1ccc(C(F)(F)F)c(Cl)c1` [Example 53, (S)-4-[(S)-4-((S)-4-Hydroxy-6-aza-spiro[2.5]oct-6-yl)-1-hydroxymethyl-4-oxo-butyl]-2-methyl-3-oxo-piperazine-1-carboxylic acid (3-chloro-4-trifluoromethyl-phenyl)-amide], for which the IC50 was 0.0043 µM.
In the case of `C[C@@H]1C(=O)N(CCCC(=O)N2CCC3(CC3)[C@H](O)C2)[C@@H](C(N)=O)CN1C(=O)Nc1ccc(C(F)(F)F)c(Cl)c1` [Example 150, (3R,6R)-4-[4-((S)-4-Hydroxy-6-aza-spiro[2.5]oct-6-yl)-4-oxo-butyl]-6-methyl-5-oxo-piperazine-1,3-dicarboxylic acid 3-amide 1-[(3-chloro-4-trifluoromethyl-phenyl)-amide]], the IC50 is 0.018 µM.
In the case of `CC(C)(C)C1(O)CCN(C(=O)CCN2CCN(C(=O)/C=C/c3ccc(Cl)c(Cl)c3)CCC2=O)CC1` [Example 84, 4-[3-(4-tert-Butyl-4-hydroxy-piperidin-1-yl)-3-oxo-propyl]-1-[(E)-3-(3,4-dichloro-phenyl)-acryloyl]-[1,4]diazepan-5-one], the IC50 amounted to 0.0479 µM.
The figure for `COC(=O)[C@@H](CCC(=O)N1CCC2(CC2)[C@H](O)C1)N1CCN(C(=O)Nc2ccc(C(F)(F)F)c(Cl)c2)[C@@H](C)C1=O` [Example 145, (R)-2-[(S)-4-(3-Chloro-4-trifluoromethyl-phenylcarbamoyl)-3-methyl-2-oxo-piperazin-1-yl]-5-((S)-4-hydroxy-6-aza-spiro[2.5]oct-6-yl)-5-oxo-pentanoic acid methyl ester] is 6.31 µM.
As to `CC1CCN(C(=O)CCN2CCN(C(=O)/C=C/c3ccc(Cl)c(Cl)c3)CCC2=O)CC1O` (racemic) [Example 71, (rac)-1-[(E)-3-(3,4-Dichloro-phenyl)-acryloyl]-4-[3-(3-hydroxy-4-methyl-piperidin-1-yl)-3-oxo-propyl]-[1,4]diazepan-5-one], the concentration for half-maximal inhibition (IC50) amounted to 0.681 µM.
As to `O=C(/C=C/c1ccc(Cl)c(Cl)c1)N1CCC(=O)N(CCC(=O)N2CCC(c3cc[nH]n3)CC2)CC1` [Example 91, 1-[(E)-3-(3,4-Dichloro-phenyl)-acryloyl]-4-{3-oxo-3-[4-(1H-pyrazol-3-yl)-piperidin-1-yl]-propyl}-[1,4]diazepan-5-one], the IC50 was found to be 0.146 µM.

Source of the values: US8445674B2, “Heterocyclyl compounds” (Hoffmann-La Roche Inc, priority 2009, dated 2013).
